Results on 12 compounds are retold here after US11952365B2, “Anti-viral compounds” (Aligos Therapeutics, Inc., priority 2020, dated 2024).

The target in one series is HRV3C (Human rhinovirus 14, UniProt P03303). The series is described as follows: HRV3C protease assay (duplex, SAMDI-MS). Type of series: biochemical, HRV. The note with it: 30 mins preincubation. Put shortly: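 Enzyme preincubated 30 min with compound at ambient temperature, then both biotinylated peptide substrates added (duplex with 3CLpro); 30 min reaction quenched with 0.5% formic acid (final). Product read by SAMDI-MS as product/internal-standard AUC ratio; IC50 from four-parameter fit.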

The target in a further series is T1, human cathepsin L (Homo sapiens, UniProt P07711).
T1 construct: purchased R&D Systems
Nature of the series: cathepsin L assay. Type of series: biochemical. As to conditions: 10 pM human cathepsin L, Z-FR-AMC 2 μM, class symbols. In outline: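 Human cathepsin L at 10 pM was preincubated 30 min with compound, then reaction started with Z-FR-AMC (2 μM final). Fluorescence (355/460 nm) read every 2 min for 30 min; IC50 from four-parameter curve fit.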

The test system of series [1] is SARS-CoV-2-GHB-03021/2020. Nature of the series: SARS-CoV-2 Infection Model in Huh7 Cells. As to conditions: Severe acute respiratory syndrome coronavirus 2, Huh-7, 96 h, SARS-CoV-2, day 4 p.i., MTS. Type of series: cell-based.
Series [2] can be described thus: Cytotoxicity plates without OC43 virus (cell-titer-glo). The note with it: human; HeLa cells without OC43 virus, class symbols. Type of series: cell-based, human. Put shortly: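 HeLa cells seeded overnight, then treated with serially diluted compounds in 2% FBS EMEM, uninfected, in parallel with the OC43 antiviral plates. Incubated 6 days at 33 °C; viability read by CellTiter-Glo luminescence.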

Series [3] relates to human beta-coronavirus OC43. The series is described as follows: microbe, parasite or virus in culture. Type of series: cell-based. As to conditions: Betacoronavirus 1, OC43, HeLa, 144 h, OC43 in HeLa cells, 6 days at 33° C., read-out: EC50.
A short description of series [4]: in vitro. The note with it: human.
The next series concerns the target 3CLpro (Severe acute respiratory syndrome coronavirus 2, UniProt P0DTD1). Nature of the series: SARS-CoV-2 3CLpro protease assay (duplex, SAMDI-MS). As to conditions: 3CLpro, 30 mins preincubation, read-out: SARS-Cov-2 IC50. The series is classed as biochemical. Set-up: For the duplex assay, 3CLpro and HRV3C was added.
Series [5] deals with SARS-CoV-2-GHB-03021/2020. Nature of the series: microbe, parasite or virus in culture. Type of series: cell-based. The note with it: Severe acute respiratory syndrome coronavirus 2, Vero C1008, 96 h; read-out: VeroE6 + CP (EC50).
Series [6] is described as follows: in vitro. The note with it: African green monkey, VeroE6 + CP (CC50), Vero E6-eGFP cells with CP-100356, absence of virus, MTS; numeric bounds.
Where [7] appears, read: HRV3C, class symbols, read-out: HRV IC50.
Setting [8] is: HRV3C, bound, read-out: HRV IC50.

The structures appear in SMILES notation. Where two headings read alike, the source gives them in different places. Where only a bound is given, the exact number is not on record here.

Broadly, the IC50 is the point on the concentration scale where inhibition reaches its midpoint. Usually EC50 stands for the concentration giving half of the maximal effect. Take `COc1cccc2[nH]c(C(=O)N3C[C@@H]4CCC[C@@H]4[C@H]3C(=O)N[C@@H](C[C@@H]3CCNC3=O)C(=O)CO)nc12` [Compound 37]: the IC50 was 20 to 100 µM at HRV3C (setting [7]), ≥ 10 µM at human cathepsin L and 0.02 to 0.2 µM on 3CLpro (class symbols). The EC50 in [1] (class symbols) and in series [3] (class symbols) was 1 to 10 µM each time. In addition, the CC50 at 6 days in series [2] was > 10 µM. In “in vitro [4]”, the CC50 was > 100 µM.
Take `COc1cccc2[nH]c(C(=O)N3C[C@H]4[C@@H]([C@H]3C(=O)N[C@@H](C[C@@H]3CCCNC3=O)C(=O)C(=O)NC3CC3)C4(C)C)cc12` [Compound 57, (3S)—N-cyclopropyl-3-{[(1R,2S,5S)-3-(4-methoxy-1H-indole-2-carbonyl)-6,6-dimethyl-3-azabicyclo[3.1.0]hexan-2-yl]formamido}-2-oxo-4-[(3S)-2-oxopiperidin-3-yl]butanamide]: the results for the IC50 on HRV3C (setting [7]), at human cathepsin L and on 3CLpro (class symbols) were 0.2 to 2 µM, ≥ 10 µM and 0.02 to 0.2 µM, respectively. For the same compound, the results for the EC50 in series [1] (class symbols) and in series [3] (class symbols) were 1 to 10 µM and 0.1 to 1 µM, respectively. For the same compound, the CC50 at 6 days in [2] was > 10 µM. In addition, in “in vitro [4]”, the CC50 was > 100 µM.
With `COc1cccc2oc(C(=O)N3C[C@@H]4CCC[C@@H]4[C@H]3C(=O)N[C@@H](C[C@@H]3CCNC3=O)C(=O)CO)cc12` [Compound 94, (1S,3aR,6aS)—N-[(2S)-4-hydroxy-3-oxo-1-[(3S)-2-oxopyrrolidin-3-yl]butan-2-yl]-2-(4-methoxy-1-benzofuran-2-carbonyl)-hexahydro-1H-cyclopenta[c]pyrrole-1-carboxamide], the IC50 is > 10 µM at HRV3C (setting [8]), ≥ 10 µM against human cathepsin L and 0.2 to 2 µM on 3CLpro (class symbols). Moreover, the EC50 lay in the range of 10 to 100 µM in series [1] (class symbols) and 1 to 10 µM in series [3] (class symbols). Besides, the CC50 at 6 days in series [2] is > 10 µM. In addition, the CC50 in the series “in vitro [4]” was > 100 µM.
In the case of `N#Cc1cccc2[nH]c(C(=O)N3C[C@@H]4CCC[C@@H]4[C@H]3C(=O)N[C@@H](C[C@@H]3CCNC3=O)C(=O)CO)cc12` [Compound 66, (1S,3aR,6aS)-2-(4-cyano-1H-indole-2-carbonyl)-N-[(2S)-4-hydroxy-3-oxo-1-[(3S)-2-oxopyrrolidin-3-yl]butan-2-yl]-hexahydro-1H-cyclopenta[c]pyrrole-1-carboxamide], the IC50 on HRV3C (setting [8]) is > 10 µM; at human cathepsin L it was ≥ 10 µM; at 3CLpro (class symbols) it was 0.02 to 0.2 µM. For the same compound, the EC50 in series [1] (class symbols) fell in the range of 10 to 100 µM; in series [3] (class symbols), 1 to 10 µM. For the same compound, the CC50 at 6 days in [2] was > 10 µM. Also, the CC50 in “in vitro [4]” was > 100 µM.
In the case of `COc1ccnc2[nH]c(C(=O)N3C[C@@H]4CCC[C@@H]4[C@H]3C(=O)N[C@@H](C[C@@H]3CCNC3=O)C(=O)CO)cc12` [Compound 67, (1S,3aR,6aS)—N-[(2S)-4-hydroxy-3-oxo-1-[(3S)-2-oxopyrrolidin-3-yl]butan-2-yl]-2-{4-methoxy-1H-pyrrolo[2,3-b]pyridine-2-carbonyl}-hexahydro-1H-cyclopenta[c]pyrrole-1-carboxamide], the IC50 at HRV3C (setting [8]) is > 10 µM; against human cathepsin L, ≥ 10 µM; on 3CLpro (class symbols), 0.02 to 0.2 µM. The EC50 in series [1] (class symbols) was 10 to 100 µM; in series [3] (class symbols) it was 1 to 10 µM. In addition, in [2], the CC50 at 6 days is > 10 µM. Further, in “in vitro [4]”, the CC50 is > 100 µM.
Consider `N#Cc1cccc2[nH]c(C(=O)N3C[C@@H]4CCC[C@@H]4[C@H]3C(=O)NC(C[C@@H]3CCNC3=O)C(=O)COCc3ccccc3)cc12` (stereo partly drawn) [Compound 66A, (1S,3aR,6aS)—N-[4-(benzyloxy)-3-oxo-1-[(3S)-2-oxopyrrolidin-3-yl]butan-2-yl]-2-(4-cyano-1H-indole-2-carbonyl)-hexahydro-1H-cyclopenta[c]pyrrole-1-carboxamide], for which the values for the IC50 on HRV3C (setting [8]), at human cathepsin L and on 3CLpro (class symbols) were > 10 µM, ≥ 10 µM and 0.2 to 2 µM, respectively. The EC50 in series [1] (class symbols) lay in the range of 1 to 10 µM; in series [3] (class symbols), 0.1 to 1 µM. Moreover, the CC50 at 6 days in series [2] was > 10 µM. Further, the CC50 in “in vitro [4]” was > 10 µM.
With `COCC(=O)[C@H](C[C@@H]1CCNC1=O)NC(=O)[C@@H]1[C@H]2CCC[C@H]2CN1C(=O)c1cc2c(OC)cccc2[nH]1` [Compound 71, (1S,3aR,6aS)-2-(4-methoxy-1H-indole-2-carbonyl)-N-[(2S)-4-methoxy-3-oxo-1-[(3S)-2-oxopyrrolidin-3-yl]butan-2-yl]-hexahydro-1H-cyclopenta[c]pyrrole-1-carboxamide], the IC50 against HRV3C (HRV IC50, HRV3C, bound) was > 10 µM; against human cathepsin L, ≥ 10 µM; on 3CLpro (class symbols), 0.2 to 2 µM. Further, the EC50 in series [1] (class symbols) was in the range of 1 to 10 µM; in series [3] (class symbols), 0.1 to 1 µM. For the same compound, the CC50 at 6 days in series [2] was > 10 µM. For the same compound, the CC50 in the series “in vitro [4]” was > 100 µM.
`COc1cccc2[nH]c(C(=O)N3Cc4ccccc4C[C@H]3C(=O)N[C@@H](C[C@@H]3CCNC3=O)C(=O)C(=O)NC3CC3)cc12` [Compound 97, (S)—N—((S)-4-(cyclopropylamino)-3,4-dioxo-1-((S)-2-oxopyrrolidin-3-yl)butan-2-yl)-2-(4-methoxy-1H-indole-2-carbonyl)-1,2,3,4-tetrahydroisoquinoline-3-carboxamide]: the IC50 against HRV3C (HRV IC50, HRV3C, class symbols) is 0.02 to 0.2 µM; at human cathepsin L it was ≥ 10 µM; on 3CLpro (class symbols), 0.2 to 2 µM. For the same compound, the concentration giving a half-maximal response (EC50) is > 100 µM in [1] (numeric bounds) and > 10 µM in series [3] (bound). The CC50 at 6 days in series [2] is > 10 µM. The CC50 in the series “in vitro [4]” was > 100 µM.
In the case of `COc1c(Cl)ccc2[nH]c(C(=O)N3C[C@@H]4CCC[C@@H]4[C@H]3C(=O)N[C@@H](C[C@@H]3CCNC3=O)C(=O)CO)cc12` [Compound 68, (1S,3aR,6aS)-2-(5-chloro-4-methoxy-1H-indole-2-carbonyl)-N—((S)-4-hydroxy-3-oxo-1-((S)-2-oxopyrrolidin-3-yl)butan-2-yl)octahydrocyclopenta[c]pyrrole-1-carboxamide], the IC50 is > 10 µM at HRV3C (setting [8]), ≥ 10 µM on human cathepsin L and 0.02 to 0.2 µM at 3CLpro (class symbols). The results for the EC50 in series [1] (class symbols) and in series [3] (class symbols) were 1 to 10 µM and 0.1 to 1 µM, respectively. In series [2], the CC50 at 6 days is > 10 µM. For the same compound, the CC50 in the series “in vitro [4]” is > 100 µM.
On to `O=C(NCc1ccccc1)C(=O)[C@H](Cc1ccncc1)NC(=O)[C@@H]1CC2(CC2)CN1C(=O)c1cc2ccccc2[nH]1` [Compound 112], for which the IC50 on HRV3C (setting [8]) is > 10 µM; on human cathepsin L, 1 to 10 µM; at 3CLpro (bound), > 10 µM. In addition, the EC50 in series [1] (numeric bounds) is > 100 µM; in series [3] (bound) it was > 10 µM. The CC50 at 6 days in series [2] was > 10 µM. The CC50 in “in vitro [4]” is > 10 µM.
With `O=C(NCc1ccccc1)C(=O)C(C[C@@H]1CCCNC1=O)NC(=O)[C@@H]1[C@H]2CCC[C@H]2CN1C(=O)c1cc2ccccc2[nH]1` (stereo partly drawn) [Compound 17, (1S,3aR,6aS)—N-(4-(benzylamino)-3,4-dioxo-1-((S)-2-oxopiperidin-3-yl)butan-2-yl)-2-(1H-indole-2-carbonyl)octahydrocyclopenta[c]pyrrole-1-carboxamide], the IC50 at HRV3C (setting [7]) fell in the range of 2 to 20 µM; against human cathepsin L it was 1 to 10 µM; at 3CLpro (class symbols), 0.02 to 0.2 µM. Moreover, the EC50 lay within 1 to 10 µM in [1] (class symbols) and 0.1 to 1 µM in series [3] (class symbols). Also, the CC50 at 6 days in series [2] is > 10 µM. The CC50 in “in vitro [4]” was > 10 µM.
On to `CC1(C)C[C@@H](C(=O)NC(C[C@@H]2CCNC2=O)C(=O)C(=O)NCc2ccccc2)N(C(=O)c2cc3ccccc3[nH]2)C1` (stereo partly drawn) [Compound 11], for which the IC50 at HRV3C (setting [7]) was 2 to 20 µM; against human cathepsin L, < 0.1 µM; at 3CLpro (class symbols), 0.2 to 2 µM. Besides, the EC50 lay within 10 to 100 µM in [5] and 1 to 10 µM in series [3] (class symbols). The CC50 at 6 days in series [2] was > 10 µM. Besides, in the series “in vitro [6]”, the CC50 was > 100 µM.
